Assay results as given in US10772903B2, “Targeting fungi in combination with cancer therapy” (Cedars-Sinai Medical Center, priority 2016, dated 2020).

Tests used:
E0771 mammary tumors = experiment: Orthotopic E0771 mammary tumors, tumor growth after localized irradiation with or without antibiotics/antifungals; assay type: in vivo, mice; conditions: for tumor response to RT: agent for one week prior to localized kV irradiation (16 Gy), FIG. 26, 27A
Description: Orthotopic E0771 mammary tumors were grown to a median diameter of 1.0 cm and mice were then started with either antibiotics (Abx) or antifungals (AF) for one week prior to being treated with localized kV irradiation (16 Gy). Total tumor burden/animal assessed every 3 days until endpoint. […] Antibiotics (Abx) were ampicillin, imipenem, cilastin and vancomycin. Fluconazole was the antifungals (AF) used for these experiments. Significance was determined by two-way ANOVA. Kaplan-Meier survival curves are also shown with significance determined by the Log-Rank test (FIG. 26G, FIG. 26H). One of five experiments is shown. […] For all figures significance is shown as *p<0.05, **p<0.01, ***p<0.001.
Orthotopic E0771 mammary tumors were grown as described above and then treated with either the antifungal (5-fluorocytosine) one week prior to treatment with localized kV irradiation (16 Gy) (n=8 per group, one of two repeats shown) (FIG. 27A).
For experiments assessing antifungal treatment and the efficacy of radiation therapy (FIGS. 2 and 13), mice bearing syngeneic murine tumors (derived from the E0771 cell line) were treated for one week with fluconazole by putting fluconazole in their drinking water. When tumors reached approximately 1 cm in size they were irradiated with 16 Gray of focal radiation from a Cesium-137 source. The tumors were then followed for tumor growth until they reached approximately 2 cm in size at which time they were harvested for analysis.
For experiments assessing the anti-fungal combination treatment (FIG. 14), in addition to just fluconazole the mice were treated with a cocktail of antifungals (Fluconazole, 5-Fluorocytosine and Amphotericin B) for one week prior to RT.

tumors = experiment: Tumor immunohistochemistry: proliferation, cell death, vessels; assay type: in vivo, mice; conditions: FIG. 5
Description: Orthotopic E0771 mammary tumors were grown to a median diameter of 1.0 cm and mice were then started with either antibiotics (Abx) or antifungals (AF) for one week prior to being treated with localized kV irradiation (16 Gy). Total tumor burden/animal assessed every 3 days until endpoint. […] Antibiotics (Abx) were ampicillin, imipenem, cilastin and vancomycin. Fluconazole was the antifungals (AF) used for these experiments. Significance was determined by two-way ANOVA. Kaplan-Meier survival curves are also shown with significance determined by the Log-Rank test (FIG. 26G, FIG. 26H). One of five experiments is shown. Tumors from mice were harvested at one week following RT and stained for bromodeoxyuridine (BrdU) and cleaved caspase 3 (CC3) to assess for proliferation and cell death respectively (FIG. 26I, FIG. 26J). Slides were scanned using the Aperio slide scanner and analyzed using the ScanScope nuclear algorithm included in the Aperio software package. Significance was determined by two-way ANOVA. For all figures significance is shown as *p<0.05, **p<0.01, ***p<0.001.

intratumoral leukocytes = conditions: FIG. 3; with RT; fluconazole added to RT and antibiotics
Description: Irradiated E0771 mammary tumors were harvested from mice at one week following RT. Tumors were dissociated using the tumor dissociation kit (Miltenyi Biotech) and CD45+ cells were then isolated with CD45+ MacsBeads. The resulting CD45+ cells were then stained with fluorescent antibodies and run on a flow cytometer. Total leukocytes (CD45+ Cells), CD4+ T cells, CD8+ T cells, M1 macrophages (CD11b+Ly6C+) and M1 macrophages (CD11b+F4/80′) were assessed following antibiotic (FIG. 28A-FIG. 28D) and antifungal (FIG. 28E-FIG. 28H) treatment. Antibiotics (Abx) were ampicillin, imipenem, cilastin and vancomycin. Fluconazole was the antifungal (AF) used for these experiments. n=5-7 per group and represent one of five independent experiments.

CD4+ T cells = experiment: Cytokine expression of CD4+ T cells from tumors; assay type: in vivo, mice; conditions: FIG. 4
Description: Tumors were harvested from mice at various time points and analyzed by flow cytometry (FACS) (FIG. 22A), immunohistochemistry (IHC) (FIG. 22B) and qPCR (FIG. 22C). FIG. 22A) For FACS, tumors were enzymatically dissociated with and labeled with fluorescently tagged antibodies and then placed on a flow cytometer. FIG. 22B) For IHC, tumor fragments were fixed in formalin and embedded in paraffin. 5 micron sections were then cut and stained with various antibodies and developed with DAB prior to whole-slide scanning on the Aperio system (Leica Biosystems). FIG. 22C) qPCR was performed on flow sorted immune cells (e.g. CD4+ T cells or macrophages) and then subjected to qPCR with a panel of primers.
Tumors are harvested and evaluated at three endpoints: 1, 2, 4 and 10 days following RT. […]

Nc1nc(=O)[nH]cc1F [5-fluorocytosine]
tumor response to RT (E0771 mammary tumors): similarly enhance the efficacy of RT

OC(Cn1cncn1)(Cn1cncn1)c1ccc(F)cc1F [Fluconazole]
tumor apoptosis (tumors): opposite
tumor cell division (tumors): opposite
efficacy of RT (E0771 mammary tumors; FIG. 12A, RT 16 Gy): increases the efficacy of RT
tumor response to RT (E0771 mammary tumors): enhance
CD4+ T cells (intratumoral leukocytes): reduces the increase in CD4+ T cell
CD8+ T cells (intratumoral leukocytes): prevents the reduction of CD8+ T cells
IFN-γ expression by CD4+ T cells (CD4+ T cells): more
IL-4 expression by CD4+ T cells (CD4+ T cells): less
